This data set deals with GENE-TOX genotoxicity assays, various organisms and cells. The data set is described as follows: GENE-TOX mutagenicity studies.
Setting [1] is: Species/Cell Type: Drosophila melanogaster, Assay Type: Sex-linked recessive lethal gene mutation, Assay Code: SRL+, Evaluation Type: Evaluation A (Pre-1980).
Setting [2] is: Species/Cell Type: Glycine max (soybean), Assay Type: Gene mutation, Assay Code: GLM-, Evaluation Type: Evaluation A (Pre-1980).
The mark [3] stands for this setting: Species/Cell Type: Nonhuman, Assay Type: Sister-chromatid exchange (SCE) in vitro, Assay Code: SC2+D, Dose Response: With dose response, Evaluation Type: Evaluation A (Pre-1980).
The mark [4] stands for this setting: Species/Cell Type: Rodents, Sex: Male, Assay Type: Dominant lethal test, Assay Code: DLT-, Evaluation Type: Evaluation A (Pre-1980).
The mark [5] stands for this setting: Species/Cell Type: Salmonella typhimurium (one or more of the five standard strains: TA98, TA100, TA1535, TA1537, and TA1538), Assay Type: Histidine reverse gene mutation, Ames assay, Assay Code: SAL+, Evaluation Type: Evaluation A (Pre-1980).
[6] abbreviates: Species/Cell Type: Salmonella typhimurium, Assay Type: Forward and reverse gene mutation, body fluid assay, Assay Code: BFU+, Evaluation Type: Evaluation A (Pre-1980).
[7] abbreviates: Species/Cell Type: Salmonella typhimurium (one or more of the five standard strains: TA98, TA100, TA1535, TA1537, and TA1538), Assay Type: Histidine reverse gene mutation, Ames assay, Assay Code: SAL+*, Activation: With metabolic activation, Evaluation Type: Evaluation A (Pre-1980).

The source made the active and inactive calls. The rule behind the calls is not given here.

On to `CCN(CC)CCNc1ccc(CO)c2sc3ccccc3c(=O)c12`, for which the mutagenic call is “active; positive” under setting [1]; “no conclusion” (Species/Cell Type: Drosophila melanogaster, Assay Type: Sex-linked recessive lethal gene mutation, Assay Code: SRLT, Evaluation Type: Evaluation A (Pre-1980)); “inactive; negative” (Species/Cell Type: Drosophila melanogaster, Sex: Male, Assay Type: Heritable translocation test, chromosome aberrations, Assay Code: DHT-, Evaluation Type: Evaluation A (Pre-1980)); “active; positive” (Species/Cell Type: Fischer rat embryo (RLV/1706) cells, Assay Type: Cell transformation, viral enhanced, Assay Code: CTR+, Evaluation Type: Evaluation A (Pre-1980)); “inactive; negative” under setting [2]; “active; positive” (Species/Cell Type: Mammalian polychromatic erythrocytes, Assay Type: Micronucleus test, chromosome aberrations, Assay Code: MNT+, Evaluation Type: Evaluation A (Pre-1980)). For the same compound, the mutagenic call (Species/Cell Type: Mouse (C3H/10T1/2) cells, Assay Type: Cell transformation, Assay Code: CTH+, Evaluation Type: Evaluation A (Pre-1980)) is “active; positive”; the mutagenic call (Species/Cell Type: Mouse germ cells, Sex: Male, Assay Type: Unscheduled DNA synthesis (UDS) in vivo, DNA effects, Assay Code: UDT+, Evaluation Type: Evaluation A (Pre-1980)) was “active; positive”; the mutagenic call (Species/Cell Type: Mouse lymphoma (L5178Y) cells, Assay Type: Forward gene mutation at the thymidine kinase (TK) locus, chromosome aberrations, Assay Code: L51+, Evaluation Type: Evaluation A (Pre-1980)) was “active; positive”; the mutagenic call (Species/Cell Type: Mouse, Sex: Female, Assay Type: Spot test, gene mutation, Assay Code: MSTT, Evaluation Type: Evaluation A (Pre-1980)) is “no conclusion”; the mutagenic call (Species/Cell Type: Mouse, Sex: Male, Assay Type: Specific locus test, gene mutation, Assay Code: SLT-, Evaluation Type: Evaluation A (Pre-1980)) is “inactive; negative”; the mutagenic call (Species/Cell Type: Mouse, Sex: Male, Assay Type: Sperm morphology, Assay Code: SPI+, Evaluation Type: Evaluation A (Pre-1980)) was “active; positive”. For the same compound, the mutagenic call is “inactive; negative” (Species/Cell Type: Neurospora crassa, Assay Type: Aneuploidy, chromosome aberrations, Assay Code: NEN-, Evaluation Type: Evaluation A (Pre-1980)); “active; positive” (Species/Cell Type: Neurospora crassa, Assay Type: Forward gene mutation, Assay Code: NEF+, Evaluation Type: Evaluation A (Pre-1980)); “no conclusion” (Species/Cell Type: Nonhuman bone marrow, Assay Type: Chromosome aberrations, in vivo, Assay Code: CY#T, Evaluation Type: Evaluation A (Pre-1980)); “no conclusion” (Species/Cell Type: Nonhuman, Assay Type: Chromosome aberrations in vitro, Assay Code: CY&T, Evaluation Type: Evaluation A (Pre-1980)); “active; positive” under setting [3]; “active; positive” (Species/Cell Type: Nonhuman, Assay Type: Sister-chromatid exchange (SCE) in vivo, Assay Code: SC3+D, Dose Response: With dose response, Evaluation Type: Evaluation B (Post-1980)). Also, the mutagenic call by setting is: (Species/Cell Type: Rodents, Sex: Male, Assay Type: Dominant lethal test, Assay Code: DLT+, Evaluation Type: Evaluation A (Pre-1980)) “active; positive”; under setting [4], “inactive; negative”; (Species/Cell Type: Saccharomyces cerevisiae, Assay Type: Mitotic recombination or gene conversion, Assay Code: YEC+, Evaluation Type: Evaluation A (Pre-1980)) “active; positive”; (Species/Cell Type: Saccharomyces cerevisiae, Assay Type: Mitotic recombination or gene conversion, Assay Code: YEH+, Evaluation Type: Evaluation A (Pre-1980)) “active; positive”; (Species/Cell Type: Saccharomyces cerevisiae, Assay Type: Reverse gene mutation, Assay Code: YER+, Evaluation Type: Evaluation A (Pre-1980)) “active; positive”; under setting [5], “active; positive”. The mutagenic call under setting [6] is “active; positive”; the mutagenic call (Species/Cell Type: Salmonella typhimurium, Assay Type: Forward and reverse gene mutation, host-mediated assay, Assay Code: HMA+, Evaluation Type: Evaluation A (Pre-1980)) is “active; positive”; the mutagenic call (Species/Cell Type: Schizosaccharomyces pombe, Assay Type: Forward gene mutation, Assay Code: YEY+, Evaluation Type: Evaluation A (Pre-1980)) was “active; positive”; the mutagenic call (Species/Cell Type: Syrian hamster embryo (SHE) cells, Assay Type: Cell transformation, clonal assay, Assay Code: CTC+, Evaluation Type: Evaluation A (Pre-1980)) was “active; positive”. Moreover, the call (Species/Cell Type: Nonhuman, Assay Type: In vivo carcinogenicity studies, Assay Code: CCG-L, Evaluation Type: Evaluation A (Pre-1980)) is “inactive; negative”.

Regarding `O=[N+]([O-])c1ccc(-c2csc(Nc3ccccc3)n2)o1`, the mutagenic call (Species/Cell Type: Escherichia coli WP2, Assay Type: Tryptophan reverse gene mutation, Assay Code: WP2+, Evaluation Type: Evaluation A (Pre-1980)) is “active; positive” and the mutagenic call (Species/Cell Type: Escherichia coli WP2 UVRA, Assay Type: Tryptophan reverse gene mutation, Assay Code: WPU-, Evaluation Type: Evaluation A (Pre-1980)) was “inactive; negative”.

For `C[C@@H]1O[C@@H](OC[C@H]2O[C@@H](Oc3c(-c4ccc(O)c(O)c4)oc4cc(O)cc(O)c4c3=O)[C@H](O)[C@@H](O)[C@@H]2O)[C@H](O)[C@H](O)[C@H]1O`, for the setting “Species/Cell Type: Mammalian polychromatic erythrocytes, Assay Type: Micronucleus test, chromosome aberrations, Assay Code: MNTT, Evaluation Type: Evaluation B (Post-1980)”, the mutagenic call is on record as “no conclusion”.

`CCOP(=S)(OCC)SCSP(=S)(OCC)OCC`: the mutagenic call is, setting by setting: (Species/Cell Type: Bacillus subtilis (H17 vs M45), Assay Type: Rec-assay, spot test, DNA effects (bacterial DNA repair), Assay Code: REWT, Evaluation Type: Evaluation A (Pre-1980)) “no conclusion”; (Species/Cell Type: Escherichia coli polA (W3119 vs P3478), Assay Type: Rec-assay, DNA effects (bacterial DNA repair), Assay Code: RE1T, Evaluation Type: Evaluation A (Pre-1980)) “no conclusion”; (Species/Cell Type: Human diploid fibroblasts, Assay Type: Unscheduled DNA synthesis (UDS) in vitro, DNA effects, Assay Code: UDH-, Evaluation Type: Evaluation A (Pre-1980)) “inactive; negative”; (Species/Cell Type: Human, Assay Type: Sister-chromatid exchange (SCE) in vitro, Assay Code: SC1-, Evaluation Type: Evaluation B (Post-1980)) “inactive; negative”; (Species/Cell Type: Saccharomyces cerevisiae, Assay Type: Mitotic recombination or gene conversion, Assay Code: YEH-, Evaluation Type: Evaluation A (Pre-1980)) “inactive; negative”; (Species/Cell Type: Salmonella typhimurium (one or more of the five standard strains: TA98, TA100, TA1535, TA1537, and TA1538), Assay Type: Histidine reverse gene mutation, Ames assay, Assay Code: SAL-, Evaluation Type: Evaluation A (Pre-1980)) “inactive; negative”.

In the case of `O=C(O)Cc1ccccc1[N+](=O)[O-]`, the mutagenic call under setting [5] is “active; positive”.

Turning to `Cc1cc(C2(c3ccc(O)c(C)c3)OC(=O)c3ccccc32)ccc1O`, the mutagenic call (Species/Cell Type: Allium cepa, Assay Type: Chromosome aberrations, Assay Code: ALC+, Evaluation Type: Evaluation A (Pre-1980)) is “active; positive”.

As to `CN1CCN(c2ccc3nc(-c4ccc5nc(-c6ccc(O)cc6)[nH]c5c4)[nH]c3c2)CC1`, the mutagenic call runs as follows: under setting [3], “active; positive”; (Species/Cell Type: Nonhuman, Assay Type: Sister-chromatid exchange (SCE) in vivo, Assay Code: SC3-, Evaluation Type: Evaluation A (Pre-1980)) “inactive; negative”; (Species/Cell Type: Nonhuman, Assay Type: Sister-chromatid exchange (SCE) in vivo, Assay Code: SC3T, Evaluation Type: Evaluation B (Post-1980)) “no conclusion”.

For `CCN(CCCC(=O)O)N=O`, the mutagenic call under setting [5] was “active; positive”.

In the case of `Nc1ncnc2c1ncn2[C@H]1C[C@H](O)[C@@H](CO)O1`, the mutagenic call reads like this: under setting [2], “inactive; negative”; (Species/Cell Type: Nonhuman, Assay Type: Sister-chromatid exchange (SCE) in vitro, Assay Code: SC2T, Evaluation Type: Evaluation B (Post-1980)) “no conclusion”.

As for `COc1ccc2c3ccc(OC)cc3c3c4cc(OC)ccc4c4ccc(OC)cc4c3c2c1`, under setting [7], the mutagenic call was “active; positive”.

In the case of `COCC(C)OS(C)(=O)=O` (centres undefined), the mutagenic call (Species/Cell Type: Hordeum vulgare (barley), Assay Type: Chromosome aberrations, Assay Code: HOC+D, Dose Response: With dose response, Evaluation Type: Evaluation A (Pre-1980)) is “active; positive”.

As for `O=C(O)[C@@H]1CCCN1`, the mutagenic call (Species/Cell Type: Salmonella typhimurium, Assay Type: Forward and reverse gene mutation, host-mediated assay, Assay Code: HMA-, Evaluation Type: Evaluation A (Pre-1980)) was “inactive; negative”.

On to `O=[N+]([O-])c1ccc(Nc2ccc(N=C=S)cc2)cc1`, for which the mutagenic call under setting [6] was “active; positive”.

For the compound `CCN(CCCl)CCCNc1ccnc2ccc(OC)cc12`, where the note is “Species/Cell Type: Neurospora crassa, Assay Type: Reverse gene mutation, Assay Code: NER+, Evaluation Type: Evaluation A (Pre-1980)”, the mutagenic call is “active; positive”.

Turning to `CC(CCC(C)OS(C)(=O)=O)OS(C)(=O)=O` (centres undefined), the mutagenic call under setting [1] is “active; positive”.

As for `Nc1c(O)c(S(=O)(=O)O)cc2cc(S(=O)(=O)O)ccc12`, under setting [4], the mutagenic call is “inactive; negative”.

In the case of `O=C1c2ccccc2C(=O)c2c1cc(O[C@H]1O[C@H](CO[C@@H]3OC[C@@H](O)[C@H](O)[C@H]3O)[C@@H](O)[C@H](O)[C@H]1O)c(CO)c2O`, the mutagenic call under setting [7] was “active; positive”.

Values taken from PubChem BioAssay AID1259408 (Genetic Toxicology Data Bank (GENE-TOX), 2018).
